{
  "source": "patent US5023266A",
  "about": "“Method of treatment of psychotic disorders” (Synthelabo, priority 1989, dated 1991)",
  "data": [
    {"biological_target": "σ-receptor", "assay": "Inhibition of [3H]-(+)-3-PPP binding to the σ-receptor in rat cerebral cortex membranes", "conditions": "2nM [3H]-(+)-3-PPP, 90 min at 25° C., non-specific binding defined with 1μM haloperidol, read-out: IC50, concentration which inhibits 50 percent of the [3H]-(+)-3-PPP binding", "protocol": "In particular their inhibitory activity on the binding of [^3 H](+)3(3-hydroxyphenyl)-N-(1-propyl)-piperidine, or [^3 H]-(+)-3-PPP, to the σ-receptor in the cerebral cortex of rats has been studied, essentially as described in J. Pharmacol. Exp. Ther., 238, 739-748, (1986). Male Sprague-Dawley rats (150-200 g) were sacrificed, and the cerebral cortex was homogenized in 25 volumes of ice-cold Tris-HCl buffer (pH 7.4 at 25° C.) with the use of an Ultra-Turrax™ polytron. The homogenate was washed twice by centrifugation (10 min at 45,000g) and intermittent resuspension of the resulting pellet in fresh buffer. The final pellet was resuspended in 20 volumes of 50mM Tris-HCl buffer (pH 8.0 at 22° C.). A 75 μl aliquot of this membrane preparation was then incubated in a final volume of 250 μl with 2nM [^3 H]-(+)-3-PPP (specific activity 90 Ci/mmol; New England Nuclear) for 90 min at 25° C., in the absence or in the presence of competing drugs. After incubation, the membranes were recovered by filtration over 0.05% polyethyleneimine-pretreated Whatman™ GF/B filters using a Skatron™ Cell Harvester, and washed with ±2.5 ml of ice-cold 50mM Tris-HCl buffer (pH 7.7 at 0° C.). Non-specific binding was defined with 1μM haloperidol.\nData were analyzed by conventional graphical techniques and least-squares regression analysis where appropriate.\nThe following Table indicates the IC50 of the compounds, i.e. the concentration (μM) which inhibits 50 percent of the [^3 H]-(+)-3-PPP.", "units": {"IC50": "nM"}, "values": [
      {"smiles": "OC(CN1CCC(Cc2ccc(F)cc2)CC1)c1ccc(Cl)cc1", "note": "(racemic) [Compound 5]", "IC50": 3},
      {"smiles": "C[C@@H]([C@H](O)c1ccc(O)cc1)N1CCC(Cc2ccccc2)CC1", "note": "(relative stereo) [Compound 1]", "IC50": 8},
      {"smiles": "C[C@H]([C@H](O)c1ccc(O)cc1)N1CCC(Cc2ccccc2)CC1", "note": "(relative stereo) [Compound 2]", "IC50": 10},
      {"smiles": "C[C@@H]([C@H](O)c1ccc(O)cc1)N1CCC(Cc2ccccc2)CC1", "note": "(single isomer, unassigned) [Compound 3]", "IC50": 15},
      {"smiles": "C[C@@H]([C@H](O)c1ccc(O)cc1)N1CCC(Cc2ccccc2)CC1", "note": "(single isomer, unassigned) [Compound 4]", "IC50": 7},
      {"smiles": "OC(CN1CCC(Cc2ccc(F)cc2)CC1)c1ccc(Cl)cc1", "note": "(single isomer, unassigned) [Compound 6]", "IC50": 9.2},
      {"smiles": "OC(CN1CCC(Cc2ccc(F)cc2)CC1)c1ccc(Cl)cc1", "note": "(single isomer, unassigned) [Compound 7]", "IC50": 9.8}
    ]}
  ]
}
